Results from PubChem BioAssay AID1259407 (Chemical Carcinogenesis Research Information System (CCRIS), 2018).
Activity calls are given as the source filed them. The rule behind the calls is not given here.

Tested on: CCRIS mutagenicity, Ames/micronucleus/aberration tests
Test: CCRIS mutagenicity studies
[1] = Test System: AMES SALMONELLA TYPHIMURIUM, Strain/Indicator: TA98, Metabolic Activation: HAMSTER, LIVER, S-9, AROCLOR 1254 (10%), Method: PREINCUBATION
[2] = Test System: AMES SALMONELLA TYPHIMURIUM, Strain/Indicator: TA98, Metabolic Activation: RAT, LIVER, S-9, AROCLOR 1254 (10%), Method: PREINCUBATION
[3] = Test System: AMES SALMONELLA TYPHIMURIUM, Strain/Indicator: TA100, Metabolic Activation: HAMSTER, LIVER, S-9, AROCLOR 1254 (10%), Method: PREINCUBATION
[4] = Test System: AMES SALMONELLA TYPHIMURIUM, Strain/Indicator: TA1535, Metabolic Activation: HAMSTER, LIVER, S-9, AROCLOR 1254 (10%), Method: PREINCUBATION
[5] = Test System: AMES SALMONELLA TYPHIMURIUM, Strain/Indicator: TA1535, Metabolic Activation: NONE, Method: PREINCUBATION
[6] = Test System: AMES SALMONELLA TYPHIMURIUM, Strain/Indicator: TA1535, Metabolic Activation: RAT, LIVER, S-9, AROCLOR 1254 (10%), Method: PREINCUBATION
[7] = Test System: AMES SALMONELLA TYPHIMURIUM, Strain/Indicator: TA1537, Metabolic Activation: NONE, Method: PREINCUBATION
[8] = Test System: AMES SALMONELLA TYPHIMURIUM, Strain/Indicator: TA98, Metabolic Activation: NONE, Method: STANDARD PLATE
[9] = Test System: AMES SALMONELLA TYPHIMURIUM, Strain/Indicator: TA98, Metabolic Activation: RAT, LIVER, S-9, AROCLOR 1254, Method: STANDARD PLATE
[10] = Test System: AMES SALMONELLA TYPHIMURIUM, Strain/Indicator: TA100, Metabolic Activation: NONE, Method: STANDARD PLATE
[11] = Test System: AMES SALMONELLA TYPHIMURIUM, Strain/Indicator: TA100, Metabolic Activation: RAT, LIVER, S-9, AROCLOR 1254, Method: STANDARD PLATE
[12] = Test System: AMES SALMONELLA TYPHIMURIUM, Strain/Indicator: TA1535, Metabolic Activation: NONE, Method: STANDARD PLATE
[13] = Test System: AMES SALMONELLA TYPHIMURIUM, Strain/Indicator: TA1535, Metabolic Activation: RAT, LIVER, S-9, AROCLOR 1254, Method: STANDARD PLATE
[14] = Test System: AMES SALMONELLA TYPHIMURIUM, Strain/Indicator: TA1537, Metabolic Activation: NONE, Method: STANDARD PLATE
[15] = Test System: AMES SALMONELLA TYPHIMURIUM, Strain/Indicator: TA1537, Metabolic Activation: RAT, LIVER, S-9, AROCLOR 1254, Method: STANDARD PLATE
[16] = Test System: AMES SALMONELLA TYPHIMURIUM, Strain/Indicator: TA1538, Metabolic Activation: NONE, Method: STANDARD PLATE
[17] = Test System: AMES SALMONELLA TYPHIMURIUM, Strain/Indicator: TA1538, Metabolic Activation: RAT, LIVER, S-9, AROCLOR 1254, Method: STANDARD PLATE

Structure (SMILES) | mutagenic call [1] | mutagenic call [2] | mutagenic call [3] | mutagenic call [4] | mutagenic call [5] | mutagenic call [6] | mutagenic call [7] | mutagenic call [8] | mutagenic call [9] | mutagenic call [10] | mutagenic call [11] | mutagenic call [12] | mutagenic call [13] | mutagenic call [14] | mutagenic call [15] | mutagenic call [16] | mutagenic call [17] | further results
O=[N+]([O-])c1cccc(O)c1 | inactive; negative | inactive; negative | inactive; negative | inactive; negative | inactive; negative | inactive; negative | inactive; negative | – | – | – | – | – | – | – | – | – | – | mutagenic call (Test System: AMES SALMONELLA TYPHIMURIUM, Strain/Indicator: TA97, Metabolic Activation: HAMSTER, LIVER, S-9, AROCLOR 1254 (10%), Method: PREINCUBATION): inactive; negative; mutagenic call (Test System: AMES SALMONELLA TYPHIMURIUM, Strain/Indicator: TA97, Metabolic Activation: NONE, Method: PREINCUBATION): inactive; negative; mutagenic call (Test System: AMES SALMONELLA TYPHIMURIUM, Strain/Indicator: TA97, Metabolic Activation: RAT, LIVER, S-9, AROCLOR 1254 (10%), Method: PREINCUBATION): inactive; negative; mutagenic call (Test System: AMES SALMONELLA TYPHIMURIUM, Strain/Indicator: TA98, Metabolic Activation: RAT, LIVER, S-9, KANECHLOR 500, Method: PREINCUBATION): active; positive; mutagenic call (Test System: AMES SALMONELLA TYPHIMURIUM, Strain/Indicator: TA98, Method: PREINCUBATION): inactive; negative; mutagenic call (Test System: AMES SALMONELLA TYPHIMURIUM, Strain/Indicator: TA100, Metabolic Activation: RAT, LIVER, S-9, AROCLOR 1254 (5, 10 OR 30%), Method: PREINCUBATION): inactive; negative; mutagenic call (Test System: AMES SALMONELLA TYPHIMURIUM, Strain/Indicator: TA100, Metabolic Activation: RAT, LIVER, S-9, KANECHLOR 500, Method: PREINCUBATION): active; positive; mutagenic call (Test System: AMES SALMONELLA TYPHIMURIUM, Strain/Indicator: TA100, Method: PREINCUBATION): inactive; negative; mutagenic call (Test System: AMES SALMONELLA TYPHIMURIUM, Strain/Indicator: TA1535, Method: PREINCUBATION): inactive; negative; mutagenic call (Test System: AMES SALMONELLA TYPHIMURIUM, Strain/Indicator: TA1537, Method: PREINCUBATION): inactive; negative; mutagenic call (Test System: AMES SALMONELLA TYPHIMURIUM, Strain/Indicator: TA1538, Metabolic Activation: NONE, Method: PREINCUBATION): inactive; negative; mutagenic call (Test System: AMES SALMONELLA TYPHIMURIUM, Strain/Indicator: TA1538, Method: PREINCUBATION): inactive; negative
CCCCCCCCOP(=O)(OCCCCCCCC)OCCCCCCCC | inactive; negative | inactive; negative | inactive; negative | inactive; negative | inactive; negative | inactive; negative | inactive; negative | – | – | – | – | – | – | – | – | – | – | mutagenic call (Test System: AMES SALMONELLA TYPHIMURIUM, Strain/Indicator: TA98, Metabolic Activation: NONE, Method: PREINCUBATION): inactive; negative; mutagenic call (Test System: AMES SALMONELLA TYPHIMURIUM, Strain/Indicator: TA100, Metabolic Activation: NONE, Method: PREINCUBATION): inactive; negative; mutagenic call (Test System: AMES SALMONELLA TYPHIMURIUM, Strain/Indicator: TA100, Metabolic Activation: RAT, LIVER, S-9, AROCLOR 1254 (10%), Method: PREINCUBATION): inactive; negative; mutagenic call (Test System: AMES SALMONELLA TYPHIMURIUM, Strain/Indicator: TA1537, Metabolic Activation: HAMSTER, LIVER, S-9, AROCLOR 1254 (10%), Method: PREINCUBATION): inactive; negative; mutagenic call (Test System: AMES SALMONELLA TYPHIMURIUM, Strain/Indicator: TA1537, Metabolic Activation: RAT, LIVER, S-9, AROCLOR 1254 (10%), Method: PREINCUBATION): inactive; negative
NC(=O)N/N=C/C(=O)O | – | – | – | – | – | – | – | inactive; negative | inactive; negative | inactive; negative | inactive; negative | inactive; negative | inactive; negative | inactive; negative | inactive; negative | inactive; negative | inactive; negative | –
OCCCc1ccccc1 | – | – | – | – | – | – | – | inactive; negative | inactive; negative | inactive; negative | inactive; negative | inactive; negative | inactive; negative | inactive; negative | inactive; negative | inactive; negative | inactive; negative | mutagenic call (Test System: AMES SALMONELLA TYPHIMURIUM, Strain/Indicator: TA98, Metabolic Activation: HAMSTER, LIVER, S-9, AROCLOR 1254, Method: STANDARD PLATE): inactive; negative; mutagenic call (Test System: AMES SALMONELLA TYPHIMURIUM, Strain/Indicator: TA100, Metabolic Activation: HAMSTER, LIVER, S-9, AROCLOR 1254, Method: STANDARD PLATE): inactive; negative; mutagenic call (Test System: AMES SALMONELLA TYPHIMURIUM, Strain/Indicator: TA1535, Metabolic Activation: HAMSTER, LIVER, S-9, AROCLOR 1254, Method: STANDARD PLATE): inactive; negative; mutagenic call (Test System: AMES SALMONELLA TYPHIMURIUM, Strain/Indicator: TA1537, Metabolic Activation: HAMSTER, LIVER, S-9, AROCLOR 1254, Method: STANDARD PLATE): inactive; negative; mutagenic call (Test System: AMES SALMONELLA TYPHIMURIUM, Strain/Indicator: TA1538, Metabolic Activation: HAMSTER, LIVER, S-9, AROCLOR 1254, Method: STANDARD PLATE): inactive; negative; mutagenic call (Test System: MOUSE LYMPHOMA, Strain/Indicator: L5178Y (TK+/TK-), Metabolic Activation: NONE, Method: SUSPENSION/PLATE): inactive; negative. reevaluation of results: negative; mutagenic call (Test System: MOUSE LYMPHOMA, Strain/Indicator: L5178Y (TK+/TK-), Metabolic Activation: RAT, LIVER, S-9, AROCLOR 1254, Method: SUSPENSION/PLATE): inactive; negative. reevaluation of results: negative
CC(=O)OCc1ccc(N=Nc2ccc(N(C)C)cc2)cc1 | – | – | – | – | – | – | – | – | – | – | – | – | – | – | – | – | – | mutagenic call (Test System: AMES SALMONELLA TYPHIMURIUM, Strain/Indicator: TA98, Metabolic Activation: RAT, LIVER, S-9, POLYCHLORINATED BIPHENYLS, Method: PREINCUBATION): active; positive; mutagenic call (Test System: AMES SALMONELLA TYPHIMURIUM, Strain/Indicator: TA100, Metabolic Activation: RAT, LIVER, S-9, POLYCHLORINATED BIPHENYLS, Method: PREINCUBATION): active; positive
O=C1C=C(N2CC2)C(=O)C(N2CC2)=C1N1CC1 | – | – | – | – | – | – | – | – | – | – | – | – | – | – | – | – | – | mutagenic call (Test System: UDS RODENT PRIMARY, Strain/Indicator: THY INCORP (NON-S-PHASE), Metabolic Activation: NONE, Method: LIQUID SCINTILLATION COUNTING): active; positive
